Data set [1] relates to THP-1. Nature of the data set: Antiinflammatory activity against human THP1 cells assessed as inhibition of LPS-induced MMP9 expression pretreated 2 hrs before LPS challenge measured after 24 hrs by SDS-PAGE. The format is functional, cell-based.
The subject of another data set is A549. Nature of the data set: Cytotoxicity against human A549 cells. Format: functional, cell-based.
The subject of data set [2] is THP-1. Nature of the data set: Cytotoxicity against LPS-stimulated human THP1 cells assessed as cell viability at 29.0 uM pretreated 2 hrs before LPS-challenge measured after 24 hrs by MTS assay. Format: cell-based. To be noted: thp-1, 24 h. Background: Formazan colour is commonly taken as a measure of viable cells.
The next data set concerns DLD2. Put plainly: Cytotoxicity against human DLD2 cells. The format is functional, cell-based.
The next data set relates to MCF7. Nature of the data set: Cytotoxicity against human MCF7 cells. The format is functional, cell-based.
Another data set relates to Ca-Ski. Nature of the data set: Cytotoxicity against human CaSki cells by. Format: functional, cell-based.
Data set [3] concerns THP-1. Put plainly: Antiinflammatory activity against human THP1 cells assessed as inhibition of LPS-induced TNFalpha release at 7.3 to 29.0 uM pretreated 2 hrs before LPS challenge measured after 24 hrs by ELISA. The format is functional, cell-based.
Data set [4] deals with THP-1. Put plainly: Antiinflammatory activity against human THP1 cells assessed as inhibition of LPS-induced TNFalpha release at 7.3 to 29.4 uM pretreated 2 hrs before LPS challenge measured after 24 hrs by ELISA. Format: functional, cell-based. For orientation: In an ELISA, binding on a coated surface is turned into a signal by an enzyme label.
The subject of data set [5] is THP-1. Nature of the data set: Cytotoxicity against LPS-stimulated human THP1 cells assessed as cell viability at 29.4 uM pretreated 2 hrs before LPS-challenge measured after 24 hrs by MTS assay. Format: cell-based. To be noted: thp-1, 24 h.
In data set [6] the test system is THP-1. Nature of the data set: Cytotoxicity against LPS-stimulated human THP1 cells assessed as cell viability at 26.9 uM pretreated 2 hrs before LPS-challenge measured after 24 hrs by MTS assay. To be noted: thp-1, 24 h. Format: cell-based.
Data set [7] deals with THP-1. Nature of the data set: Antiinflammatory activity against human THP1 cells assessed as inhibition of LPS-induced TNFalpha release at 6.7 to 26.9 uM pretreated 2 hrs before LPS challenge measured after 24 hrs by ELISA. Format: functional, cell-based.
Data set [8] has as its system THP-1. Put plainly: Antiinflammatory activity against human THP1 cells assessed as inhibition of LPS-induced TNFalpha release at 6.5 to 25.9 uM pretreated 2 hrs before LPS challenge measured after 24 hrs by ELISA. Format: functional, cell-based.
Data set [9] deals with THP-1. Nature of the data set: Cytotoxicity against LPS-stimulated human THP1 cells assessed as cell viability at 25.9 uM pretreated 2 hrs before LPS-challenge measured after 24 hrs by MTS assay. The format is cell-based. To be noted: thp-1, 24 h.

SMILES strings stand for the structures. The source made the active and inactive calls. The rule behind the calls is not given here.

On to `COc1ccc([C@H]2CC(=O)c3ccc(O[C@@H]4O[C@H](COC(=O)CC(C)CCCC(CO)CCCC(C)C)[C@@H](O)[C@H](O)[C@H]4O)cc3O2)cc1OC` (stereo partly drawn), for which the Activity entry was “Dose-dependent effect” in the data set with THP-1 [1]; “Not toxic” with A549; “Non-toxic” with THP-1 [2]; “Not toxic” with DLD2; “Not toxic” in the data set on MCF7; “Not toxic” in the data set on Ca-Ski. In addition, the outcome in the data set with THP-1 [3] was Active.

With `C=C(CCC=C(C)C)CC/C=C(\C)CC(=O)OC[C@H]1O[C@@H](Oc2ccc3c(c2)O[C@@H](c2ccc(OC)c(OC)c2)CC3=O)[C@H](O)[C@@H](O)[C@@H]1O`, the outcome in the data set on THP-1 [4] was Active. For the same molecule, the Activity result was “Dose-dependent effect” in the data set with THP-1 [1]; “Not toxic” with A549; “Not toxic” in the data set on DLD2; “Not toxic” in the data set on MCF7; “Not toxic” in the data set with Ca-Ski; “Non-toxic” with THP-1 [5].

Regarding `CCC(C)C(CCC(C)CCCC(C)CCCC(C)C)O[C@H]1[C@H](O)[C@@H](O)[C@H](Oc2c(-c3ccc(OC)cc3)oc3cc(O)cc(O)c3c2=O)O[C@@H]1CO` (stereo partly drawn), the Activity result in the data set with THP-1 [1] was “Dose-dependent effect”; in the data set with A549 it was “Not toxic”; in the data set on DLD2, “Not toxic”; in the data set with MCF7, “Not toxic”; with Ca-Ski, “Not toxic”; in the data set with THP-1 [6] it was “Non-toxic”. In the data set with THP-1 [7], the result was Active.

Regarding `C/C=C(\C)C(CCC(C)CCCC(C)CCCC(C)C)O[C@H]1[C@H](O)[C@@H](O)[C@H](Oc2cc(O)c3c(=O)c(O)c(-c4ccc(OC)c(OC)c4)oc3c2)O[C@@H]1CO` (stereo partly drawn), the Activity result in the data set on THP-1 [1] was “Dose-dependent effect”; in the data set with A549, “Not toxic”; in the data set on DLD2, “Not toxic”; in the data set with MCF7, “Not toxic”; in the data set on Ca-Ski, “Not toxic”; in the data set with THP-1 [9], “Non-toxic”. In addition, in the data set with THP-1 [8], the result was Active.

The record behind these values is ChEMBL document CHEMBL1151844, “Flavonoid glucosides from the hairy roots of Catharanthus roseus” (J Nat Prod, 2009).
